{"source": "patent US20240173325A1", "about": "“METHODS FOR TREATING SPINAL MUSCULAR ATROPHY” (Genentech, Inc., priority 2022, published 2024)", "key": {"[1]": {"system": "FMO1 and FMO3, CYPs 1A1, 2J2, 3A4, and 3A7", "details": "cited from earlier work"}, "[2]": {"details": "rodents and rabbits; cited from earlier work"}, "[3]": {"system": "neurofilament", "test": "Neurofilament light and phosphorylated heavy chain ELISA on plasma and serum", "assay_type": "in vivo, human", "experimental": "Neurofilament light and phosphorylated heavy chain assays were performed on plasma and serum samples using an ELISA assay, following the manufacturer's instructions (ProteinSimple, San Jose, CA, USA). Two runs were performed, each run having 3 aliquots run on the same plate and the mean value utilized. The average of the two runs was used for interpretation and in constructing FIG. 3 and FIG. 4.\nThe x-axis in FIG. 3 and FIG. 4 is associated with the date. The x-axis in FIG. 3 includes both prenatal dates (e.g., 32.5 WG or weeks gestation-37.6 WG) and postnatal dates or “PND” (e.g., d0-d43, referring to days post-birth of the fetal subject as the neonatal subject). The y- axis in FIG. 3 and FIG. 4 is associated with the mean neurofilament levels in blood (measured in pg/mL).\nFurther, in FIG. 3 and FIG. 4, “NF-L” refers to “neurofilament light chain,” which is a neuronal protein highly expressed in large caliber myelinated axons. NF-L levels increase in cerebrospinal fluid and blood proportionally to the degree of axonal damage in a variety of neurological disorders, including inflammatory, neurodegenerative, traumatic and cerebrovascular diseases. See Gaetani (2019) J. Neurol. Neurosurg. Psychiatry. 90(8):870-881. Additionally, “pNF-H” refers to the phosphorylated neurofilament heavy subunit (or phosphorylated NF-H). Further, as shown in FIG. 3 and FIG. 4, “Ser” refers to blood serum and “Pla” refers to blood plasma."}, "[4]": {"system": "SMN protein", "details": "cited from earlier work"}, "[5]": {"system": "neonatal subject", "test": "Electrophysiological testing (CMAP, MUNE)", "assay_type": "in vivo, human", "experimental": "The electrophysiological testing described in this Example can serve as a prognostic biomarker. See Pino (2021) Biomark. Insights. 16:11772719211035643. Electrophysiological studies were performed using standard technique on a Natus UltraPro S100 instrument, with Natus pre-gelled disposable surface electrodes (#901350242) and standard settings for motor nerve conduction studies (LFF 10 Hz and HFF […]). The right ulnar nerve was stimulated at the elbow and recorded from the abductor digiti minimi (ADM) and the peroneal (fibular) nerve was stimulated at the knee and recorded from the tibialis anterior (TA) muscle.\nElectrophysiological measurements, such as the compound muscle action potential (CMAP) in millivolts (mV) and motor unit number estimation (MUNE), monitor the functional status of the motor unit pool and are particularly pertinent to motor neuron disorders. See Arnold (2014) Ann. Clin. Transl. Neurol. 1(1):34:44. Cross-sectional studies have shown that CMAP and MUNE correlate with other measures of motor function, clinical severity, and overall function. See Arnold (2014) Ann. Clin. Transl. Neurol. 1(1):34:44.\nThe CMAP response measures the output of the motor units supplying a particular muscle or group of muscles. The CMAP size is determined by the size and number of depolarized muscle fibers following supramaximal nerve stimulation. Three active electrode placements were used for each nerve tested and the maximal amplitude of the negative peak of the CMAP was used for analysis. As a reference study for the CMAP data provided in Table 6, an ongoing Phase 2, open-label study (NURTURE) aims to evaluate the safety and efficacy of nusinersen in preventing or profoundly attenuating the severity of SMA when initiated prior to the onset of symptoms. See De Vivo (2019) Neuromuscul. Disord. 29(11):842-856. In accordance with this reference study, CMAP amplitudes were mean (SD) 2.7 (1.5) and median (range) 2.3 (1.0-6.7) and NeuroNEXT (typically developing infants) was mean (SD) 5.5±2.0. See Kolb (2016) Ann. Clin. Transl. Neurol. 3(2):132-45.\nMUNE is an electrophysiological method that can measure the number of motor units supplying a particular muscle. It should be appreciated that the “N” of MUNE (ulnar N) in Table 6 refers to “nerve.” For pre-symptomatic SMA neonates, MUNE (ulnar N) ranges from 70-270. See Bromberg (2002) Muscle Nerve. 25(3):445-7; and Swoboda (2005) Ann Neurol. 57(5):704-12. In this Example, the MUNE was performed on the right ulnar nerve using the multipoint technique. A minimum of ten unique single motor unit potentials were captured with the mean value used for the calculation of the MUNE. […] See Swoboda, et al. (2005) Ann. Neurol. 57:704-712; and Bromberg (2002) Muscle Nerve 25:445-447."}}, "note": "Read-outs that look alike come from different tables or passages of the source.", "data": [{"smiles": "Cc1cn2nc(-c3cc(=O)n4cc(N5CCNC6(CC6)C5)ccc4n3)cc(C)c2n1", "note": "[risdiplam, 7-(4,7-diazaspiro[2.5]octan-7-yl)-2-(2,8-dimethylimidazo[1,2-b]pyridazin-6-yl)-4H-pyrido[1,2-a]pyrimidin-4-one]", "values": [{"measurement": "Activity of metabolites", "setting": "[1]", "result": "inactive"}, {"measurement": "Metabolizing enzymes", "setting": "[1]", "result": "primarily metabolized by flavin monooxygenase 1 and 3 (FMO1 and FMO3) and also by CYPs 1A1, 2J2, 3A4, and 3A7"}, {"measurement": "Placental transfer", "setting": "[2]", "result": "crosses the placenta"}, {"measurement": "pNF-H level in neonatal subject compared to the carrier", "setting": "[3]; at delivery", "result": "about 10 fold"}, {"measurement": "NF-L levels", "setting": "[3]; carrier and neonatal subject, FIG. 3 and FIG. 4", "result": "low, with little change"}, {"measurement": "Increase of post-partum pNF-H levels", "setting": "[3]; carrier, 6-week observation period", "result": "approximately 2 fold"}, {"measurement": "pNF-H level relative to lowest value in NURTURE study participants", "setting": "[3]; neonatal subject", "result": 35, "unit": "%"}, {"measurement": "pNF-H level relative to NURTURE median value (20881)", "setting": "[3]; neonatal subject versus pre-symptomatic SMN2X2 infants under 6 weeks", "result": 1.4, "unit": "%"}, {"measurement": "pNF-H level", "setting": "[3]; neonatal subject, data point of FIG. 4 correlated to FIG. 5", "result": 293, "unit": "pg/mL"}, {"measurement": "SMN protein level in whole blood, reference values (median, range)", "setting": "[4]; high dose 0.2 mg/kg/day, 4 W risdiplam", "result": "5.9 (2.8-8.8) ng/mL"}, {"measurement": "SMN protein level in whole blood, reference values (median, range)", "setting": "[4]; high dose 0.2 mg/kg/day, 12 M risdiplam", "result": "5.7 (2.7-8.6) ng/mL"}, {"measurement": "SMN protein level in whole blood, reference values (median, range)", "setting": "[4]; high dose 0.2 mg/kg/day, T0", "result": "T0: 2.5 (1.1-6.4) ng/mL"}, {"measurement": "SMN protein level in whole blood, reference values (median, range)", "setting": "[4]; low dose 0.08 mg/kg/day, 4 W risdiplam", "result": "4.5 (2.6-5.6) ng/mL"}, {"measurement": "SMN protein level in whole blood, reference values (median, range)", "setting": "[4]; low dose 0.08 mg/kg/day, 12 M risdiplam", "result": "3.0 (1.8-5.5) ng/mL"}, {"measurement": "SMN protein level in whole blood, reference values (median, range)", "setting": "[4]; low dose 0.08 mg/kg/day, T0", "result": "T0: 1.3 (0.6-4.8) ng/mL"}, {"measurement": "MUNE (Ulnar N)", "setting": "[5]; 1 week", "result": 167}, {"measurement": "Peroneal N CMAP", "setting": "[5]; 1 week", "result": 2.7, "unit": "mV"}, {"measurement": "Ulnar N CMAP", "setting": "[5]; 1 week", "result": 4.6, "unit": "mV"}, {"measurement": "Ulnar nerve CMAP relative to NURTURE median 2.3 mV", "setting": "[5]; 1 week", "result": 2, "unit": "fold"}, {"measurement": "MUNE (Ulnar N)", "setting": "[5]; 6 weeks", "result": 313}, {"measurement": "Peroneal N CMAP", "setting": "[5]; 6 weeks", "result": 3.5, "unit": "mV"}, {"measurement": "Ulnar N CMAP", "setting": "[5]; 6 weeks", "result": 5.8, "unit": "mV"}, {"measurement": "Ulnar nerve CMAP relative to NURTURE median 2.3 mV", "setting": "[5]; 6 weeks", "result": 2.5, "unit": "fold"}, {"measurement": "MUNE (Ulnar N)", "setting": "[5]; 18 weeks", "result": 296}, {"measurement": "Ulnar N CMAP", "setting": "[5]; 18 weeks", "result": 7.1, "unit": "mV"}]}]}
